Results as given in US20100009348A1, “Methods and Constructs for Analyzing Biological Activities of Biological Specimens and Determining States of Organism” (ATTAGENE, INC., priority 2005, published 2010).

Experiment: STZ-induced type I diabetes in rats, blood glucose concentration
Format: in vivo, rat
Conditions: Sprague-Dawley male rats, single intra-peritoneal injection of 70 mg/kg STZ, seven days following the injection, tail vein blood
Source text: Experimental type I diabetes mellitus was induced in rats by using Streptozotocin (STZ), a N-nitroso derivative of D-glucosamine. Streptozotocin causes rapid necrosis in pancreatic β-cells of islets of Langerhans (Okamoto, 1985, Bioessays 2:15-21). STZ has been widely used to provoke insulin-dependent diabetes conditions in various laboratory animals, and animals treated with STZ are recognized in the art as a model of diabetes mellitus (Like and Rossini, 1976, Science 193:415-417).
The design of the approach to compare sera from diabetic and healthy rats is illustrated in FIG. 4. Sprague-Dawley male rats aged 10-12 weeks were randomly allocated in two groups. Rats from one group received a single intra-peritonial injection of 70 mg/kg STZ (Sigma-Aldrich, St. Louis, Mo., USA) dissolved in freshly prepared 50 mM citrate buffer (pH, 4.0). Animals in control group received an equivalent volume of the citrate buffer. Seven days following the injection, blood samples were derived from a tail vein of the control and STZ treated animals. Development of the diabetic conditions in STZ treated animals was confirmed by blood glucose concentration measurements.

With `CN(N=O)C(=O)N[C@H]1C(O)O[C@H](CO)[C@@H](O)[C@@H]1O` (mixture of isomers) [STZ, Streptozotocin] the “blood glucose levels (hyperglycemia)” value was “at least 300 mg/dl”.
